Tests used:
[1] = system: Cushing's syndrome secondary to ectopic ACTH secretion; assay: Case-study: mifepristone in a patient with Cushing's syndrome secondary to ectopic ACTH secretion; type: in vivo, human; settings: person
From the text: A subject, first presented with clinical symptoms of Cushing's syndrome in August 2006, and they were diagnosed with Cushing's syndrome secondary to ectopic ACTH secretion in March 2007.

[2] = system: Cushing's syndrome (ectopic ACTH secretion); settings: cited from earlier work
[3] = 200 mg three times a day, after 2 weeks of treatment

CC#C[C@]1(O)CC[C@H]2[C@@H]3CCC4=CC(=O)CCC4=C3[C@@H](c3ccc(N(C)C)cc3)C[C@@]21C [mifepristone]
concomitant insulin treatment [1, 3]: insulin was stopped | dose of concomitant metformin [1, 3]: decreased by two | general clinical consequences of hypercortisolism [1, 3]: rapidly improved | glycemia [1, 3]: returned to normal | dose of enalapril previously administered for hypertension ([1]; mifepristone 200 mg three times a day): decreased from 30 mg to 10 mg | outcome of fractioned dosage ([2]; fractioned dosage, young child): successfully given | efficacy in clinical trials ([2]; high-dose mifepristone once a day): some efficacy
